Target: T1, Der f 2 mite extract (Dermatophagoides farinae, UniProt Q00855)
T1 construct: Add 1.0 ml of 20 ug/ml Der f 2 mite extract; from tissue; host or cells: house dust mite extract (Dermatophagoides farinae)
T1 sequence (Q00855 18-146): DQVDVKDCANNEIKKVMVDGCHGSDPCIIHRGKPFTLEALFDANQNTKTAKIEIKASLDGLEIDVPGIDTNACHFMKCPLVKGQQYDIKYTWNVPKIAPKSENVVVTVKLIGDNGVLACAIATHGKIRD
Test: Efficacy Determination Protocol, ELISA (allergen neutralization)
Type: biochemical
Conditions: for Average Absorbance / % of Allergen Remaining: 1.4 wt.% of ion; for Average Absorbance: 490 nm, water control 1.7; for % of Allergen Remaining: Der f 2, normalized to water control = 100
Description: The efficacy of an allergen neutralization composition can be determined by the ELISA protocol. Enzyme-linked immunosorbent assay (“ELISA”) is a highly sensitive assay technique for detection and measurement of antigens or antibodies in solution. The assay uses enzyme-linked antigens or antibodies to amplify an antigen-antibody reaction. A single enzyme-linked antibody-antigen complex can convert orders of magnitude more of colorless substrate molecules into detectable colored products, thus considerably amplifying the original antigen-antibody reaction. The antigen or antibody is adsorbed onto the surface of the well of a microtiter plate, and all the relevant reactions take place in solution inside the well. While the following protocol will be easily understood by those skilled in the art, for a more detailed explanation please see Konishi, E. and Uehara, K. Enzyme-linked immunosorbent assay for quantifying antigens of Dermatophagoides farinae and D. pteronyssinus (Acari: Pyroglyphidae) in house dust samples, 1990, Entomologist Society of America, 27 (6), p. 993-998.
It is understood that those skilled in the art of allergen suppression will be aware of numerous variations to the protocol given below. For example, the monoclonal antibody may be substituted with a similar antibody, for example Der f 1 for Der f 2. But a standard, in this case water, is used and the results for the samples that contain active ingredients are normalized against the standard and the results reported as percentage of allergen remaining That is, the amount of allergen that is not neutralized. Thus, the allergen neutralization results for similar, but not identical antibodies should be substantially the same when normalized to the standard. Both Der f 1 and Der f 2 were tested for various compositions, but Der f 2 was chosen as the standard for the present Efficacy Determination Protocol because it is more difficult to neutralize. To be clear, the values for the % of allergen remaining that are reported in Table I will generally improve (that is, decrease) when tested with Der f 1.
At least two samples are prepared. One sample contains only distilled water and samples of one or more allergen neutralization compositions containing the allergen neutralization active, for example ZnCl2, tannin, etc. The samples are all treated according to the same protocol, and the distilled water sample is used as the control. All samples are prepared as follows:
1) Add 1.0 ml of 20 ug/ml Der f 2 mite extract to 0.8 ml of the sample composition (either the allergen neutralization composition or water for the control). Mix well and let sit for 1 hour at room temp.
2) Add 2.2 ml of 20% skim milk in Phosphate Buffer Saline (PBS).
3) Mix well by vortexing and centrifuge at 12000 rpm (approx. 17000×g) for 1 hour.
4) The supernatant is used for the ELISA protocol.
Each well of a microplate is coated at 4° C. overnight with 100 μl of Der f 2 monoclonal antibody (clone 15E11, from Asahi Breweries., AB-A-4) at a protein concentration of […] of Phosphate Buffer Saline (PBS), pH 7.4 containing 0.1% sodium azide. The monoclonal antibody is discarded and the plate is incubated with 100 μL of 1% BSA PBS containing 0.1% sodium azide for 1 hour. The plate is washed 3 times with PBS containing 0.05% Tween 20 (PBS-T). 100 μl of an allergen sample is added and incubated for 1 hour at 37° C.
Use 3× dilutions of a reference Dermatophagoides farinae crude extract (commercially available from LSL) to make the standard curve. The curve is made using 6.9 nanogram-mite extract equivalent/ml to 5 microgram-mite extract equivalent/ml. Wash plate with PBS-T for 3 times. 100 μl of Horse Radish Peroxidase (HRP) conjugated anti Der f 2 antibody (clone 13A4) is added at 40 ng/ml and the plate is incubated at 37° C. for 1 hour. The plate is then washed with PBS-T 3 times and then washed with water 3 times. […]

[1] = weight % of metal ion in the composition, inferred from Table III

SMILES: [Cl][Sn][Cl] [SnCl2]
- Average Absorbance (pH 2.1): 0.54
- % of Allergen Remaining (pH 2.1): 32%
- Average Absorbance (pH 3.2): 0.25
- % of Allergen Remaining (pH 3.2): 18%
- effective amount if 80% removal is necessary [1]: about 1.4%
- effective amount to remove 50% of allergens [1]: less than 1.4%

SMILES: O=S(=O)([O-])[O-].[Fe+2] [FeSO4]
- Average Absorbance (pH 3.5): 1.13
- % of Allergen Remaining (pH 3.5): 54%

SMILES: [Cl][Fe][Cl] [FeCl2]
- Average Absorbance (pH 2.9): 0.84
- % of Allergen Remaining (pH 2.9): 44%

SMILES: O=S(=O)([O-])[O-].[Sn+2] [SnSO4]
- Average Absorbance (pH 2.0): 0.28
- % of Allergen Remaining (pH 2.0): 22%

SMILES: [Cl-].[Cl-].[Zn+2] [ZnCl2, Zinc chloride]
- Average Absorbance (pH 3.6): 0.70
- % of Allergen Remaining (pH 3.6): 34%

Source: patent US20030203035A1, “Allergen neutralization compositions” (The Procter & Gamble Company, priority 2000, published 2003)
